How the values were obtained:
CDK2/cyclin A2 = biological target: T1, CDK2/cyclin A2 (Homo sapiens, UniProt P24941); test: Human CDK2/cyclin A2 inhibitory activity (QS S Assist CDK2/Cyclin A2_FP Kit, IMAP fluorescence polarization); format: biochemical; details: Human CDK2/cyclin A2 inhibitory activity; read-out: CDK2 Activity symbol
T1 construct: purchased Carna Biosciences, Inc. QS S Assist CDK2/Cyclin A2_FP Kit
Method in brief: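 Kinase activity read as fluorescence polarization (485/535 nm) after phosphorylated fluorescent substrate binds IMAP reagent (30 min, RT, dark). Enzyme (2.5 ng/well) reacted 60 min at RT with ATP/substrate/metal in HEPES pH 7.4 buffer with Tween 20 and DTT; no-enzyme wells define 0% activity; IC50 by curve fit.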

CDK4/cyclin D3 = biological target: T2, CDK4/cyclin D3 (Homo sapiens, UniProt P11802); test: Human CDK4/cyclin D3 inhibitory activity (QS S Assist CDK4/Cyclin D3_FP Kit, IMAP fluorescence polarization); format: biochemical; details: Human CDK4/cyclin D3 inhibitory activity; read-out: CDK4 Activity symbol
T2 construct: purchased Carna Biosciences, Inc. QS S Assist CDK4/Cyclin D3_FP Kit
T2 sequence (P11802 whole entry): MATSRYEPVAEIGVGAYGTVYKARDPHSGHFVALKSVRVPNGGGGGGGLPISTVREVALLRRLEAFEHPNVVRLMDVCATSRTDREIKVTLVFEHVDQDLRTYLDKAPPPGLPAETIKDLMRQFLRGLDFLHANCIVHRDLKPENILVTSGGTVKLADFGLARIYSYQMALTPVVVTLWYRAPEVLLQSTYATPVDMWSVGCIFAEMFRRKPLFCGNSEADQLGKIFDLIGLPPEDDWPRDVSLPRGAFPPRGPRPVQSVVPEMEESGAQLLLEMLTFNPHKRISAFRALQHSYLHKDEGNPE
T2 sequence (P30281 whole entry partner): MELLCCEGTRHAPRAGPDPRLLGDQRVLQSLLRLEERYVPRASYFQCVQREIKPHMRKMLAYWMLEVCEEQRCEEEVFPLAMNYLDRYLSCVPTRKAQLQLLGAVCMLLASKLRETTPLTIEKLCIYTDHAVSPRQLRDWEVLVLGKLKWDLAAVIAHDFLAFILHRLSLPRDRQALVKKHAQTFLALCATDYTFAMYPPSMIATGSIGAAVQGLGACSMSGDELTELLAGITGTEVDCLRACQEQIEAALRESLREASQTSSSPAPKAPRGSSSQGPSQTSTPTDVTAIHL
Method in brief: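 Percent inhibition, relative to DMSO with and without enzyme, was curve-fitted to give IC50 from polarization (ex 485, em 535 nm). The 45-min room-temperature reaction used 12.5-25 ng/well enzyme, kit ATP/substrate/metal mix, and HEPES pH 7.4 buffer with Tween20 and DTT, followed by 30-min IMAP binding in the dark.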

Row | SMILES | IC50 (CDK2/cyclin A2) | IC50 (CDK4/cyclin D3)
1 | CO[C@H](C)c1cc2cnc(Nc3ccc(CN4CCN(CCF)CC4)cn3)nc2c(NC(C)C)n1 [Compound 276] | ≥ 0.1 µM | < 0.01 µM
2 | CO[C@H](C)c1cc2cnc(Nc3ccc(CN4CCc5nc(C)[nH]c5C4)cn3)nc2c(NC(C)C)n1 [Compound 277] | ≥ 0.1 µM | ≥ 0.1 µM
3 | CNC(=O)C1CCN(Cc2ccc(Nc3ncc4cc([C@@H](C)OC)nc(NC(C)C)c4n3)nc2)CC1 [Compound 278] | ≥ 0.1 µM | < 0.01 µM
4 | CO[C@H](C)c1cc2cnc(Nc3ccc(CN4CCOCC4(C)C)cn3)nc2c(NC(C)C)n1 [Compound 279] | ≥ 0.1 µM | 0.01 to 0.1 µM
5 | CO[C@H](C)c1cc2cnc(Nc3ccc(CN4[C@@H](C)COC[C@@H]4C)cn3)nc2c(NC(C)C)n1 [Compound 280] | ≥ 0.1 µM | ≥ 0.1 µM
6 | CO[C@H](C)c1cc2cnc(Nc3ccc(CN4CCN(CC(F)F)CC4)cn3)nc2c(NC(C)C)n1 [Compound 281] | ≥ 0.1 µM | 0.01 to 0.1 µM
7 | CO[C@H](C)c1cc2cnc(Nc3ccc(OCCN4CCOCC4)cn3)nc2c(NC(C)C)n1 [Compound 282] | ≥ 0.1 µM | < 0.01 µM
8 | CO[C@H](C)c1cc2cnc(Nc3ccc(OCCCN(C)C)cn3)nc2c(NC(C)C)n1 [Compound 283] | ≥ 0.1 µM | < 0.01 µM
9 | C[C@@H](O)c1cc2cnc(Nc3ccc(N4CCNCC4)nn3)nc2c(NCC2CCOC2)n1 (stereo partly shown) [Compound 284] | ≥ 0.1 µM | < 0.01 µM
10 | CO[C@H](C)c1cc2cnc(Nc3ccc(N4CCNCC4)nn3)nc2c(NC2CCOCC2)n1 [Compound 285] | ≥ 0.1 µM | < 0.01 µM
11 | CO[C@H](C)c1cc2cnc(Nc3ccc(N4CCCC(O)C4)nn3)nc2c(NC(C)C)n1 (stereo partly shown) [Compound 286] | ≥ 0.1 µM | < 0.01 µM
12 | CO[C@H](C)c1cc2cnc(Nc3ccc(OCCN4CCCC4)cn3)nc2c(NC(C)C)n1 [Compound 287] | ≥ 0.1 µM | < 0.01 µM
13 | CNCCOc1ccc(Nc2ncc3cc([C@@H](C)OC)nc(NC(C)C)c3n2)nc1 [Compound 288] | ≥ 0.1 µM | < 0.01 µM
14 | CO[C@H](C)c1cc2cnc(Nc3ccc(OC4CCNCC4)cn3)nc2c(NC(C)C)n1 [Compound 289] | ≥ 0.1 µM | < 0.01 µM
15 | CO[C@H](C)c1cc2cnc(Nc3ccc(OC4CCNC4)cn3)nc2c(NC(C)C)n1 (stereo partly shown) [Compound 290] | ≥ 0.1 µM | < 0.01 µM
16 | CO[C@H](C)c1cc2cnc(Nc3ccc(CN4CCNCC4)cn3)nc2c(NC2CCOCC2)n1 [Compound 291] | ≥ 0.1 µM | < 0.01 µM
17 | COCC(C)(C)Nc1nc([C@@H](C)O)cc2cnc(Nc3ccc(CN4CC[C@@H](F)C4)cn3)nc12 [Compound 292] | ≥ 0.1 µM | 0.01 to 0.1 µM
18 | COCC(C)(C)Nc1nc([C@@H](C)O)cc2cnc(Nc3ccc(CN4CCCOCC4)cn3)nc12 [Compound 293] | ≥ 0.1 µM | < 0.01 µM
19 | COCC(C)(C)Nc1nc([C@@H](C)O)cc2cnc(Nc3ccc(CN4CCC(OC)CC4)cn3)nc12 [Compound 294] | ≥ 0.1 µM | < 0.01 µM
20 | COCC(C)(C)Nc1nc([C@@H](C)O)cc2cnc(Nc3ccc(CN4CCn5ccnc5C4)cn3)nc12 [Compound 295] | ≥ 0.1 µM | 0.01 to 0.1 µM
21 | COCC(C)(C)Nc1nc([C@@H](C)O)cc2cnc(Nc3ccc(CN4CCc5nc(C)[nH]c5C4)cn3)nc12 [Compound 296] | ≥ 0.1 µM | ≥ 0.1 µM
22 | CNC(=O)C1CCN(Cc2ccc(Nc3ncc4cc([C@@H](C)O)nc(NC(C)(C)COC)c4n3)nc2)CC1 [Compound 297] | ≥ 0.1 µM | < 0.01 µM
23 | COCC(C)(C)Nc1nc([C@@H](C)O)cc2cnc(Nc3ccc(CN4CCOCC4(C)C)cn3)nc12 [Compound 298] | ≥ 0.1 µM | 0.01 to 0.1 µM
24 | COCC(C)(C)Nc1nc([C@@H](C)O)cc2cnc(Nc3ccc(CN4CCN(CC(F)F)CC4)cn3)nc12 [Compound 299] | ≥ 0.1 µM | 0.01 to 0.1 µM
25 | CO[C@H](C)c1cc2cnc(Nc3ccc(CN4CCNCC4)cn3)nc2c(N[C@@H]2CCCOC2)n1 [Compound 301] | ≥ 0.1 µM | < 0.01 µM

Row | SMILES | IC50 (CDK2/cyclin A2) | IC50 (CDK4/cyclin D3)
26 | CO[C@H](C)c1cc2cnc(Nc3ccc(CN4CCNCC4)cn3)nc2c(N[C@@H]2CCOC2)n1 [Compound 303] | ≥ 0.1 µM | < 0.01 µM
27 | CO[C@H](C)c1cc2cnc(Nc3ccc(N4CCNCC4)nn3)nc2c(N[C@@H]2CCCOC2)n1 [Compound 305] | ≥ 0.1 µM | < 0.01 µM
28 | CO[C@H](C)c1cc2cnc(Nc3ccc(N4CCNCC4)nn3)nc2c(N[C@H]2CCOC2)n1 [Compound 306] | ≥ 0.1 µM | 0.01 to 0.1 µM
29 | CO[C@H](C)c1cc2cnc(Nc3ccc(N4CCNCC4)nn3)nc2c(N[C@@H]2CCOC2)n1 [Compound 307] | ≥ 0.1 µM | < 0.01 µM
30 | C[C@@H](O)c1cc2cnc(Nc3ccc(N4CCNCC4)nn3)nc2c(NC2CCCCC2C(=O)O)n1 (stereo partly shown) [Compound 308] | ≥ 0.1 µM | ≥ 0.1 µM
31 | C[C@@H](O)c1cc2cnc(Nc3ccc(N4CCNCC4)nn3)nc2c(NC2CCCC2C(=O)O)n1 (stereo partly shown) [Compound 309] | ≥ 0.1 µM | ≥ 0.1 µM
32 | CCO[C@H](C)c1cc2cnc(Nc3ccc(N4CCNCC4)nn3)nc2c(NC(C)C)n1 [Compound 310] | ≥ 0.1 µM | < 0.01 µM
33 | CO[C@H](C)c1cc2cnc(Nc3ccc(C4CCNCC4)nn3)nc2c(NC(C)C)n1 [Compound 311] | ≥ 0.1 µM | < 0.01 µM
34 | C[C@@H](O)c1cc2cnc(Nc3ccc(CN4CCNCC4)cn3)nc2c(NCC2CCOCC2)n1 [Compound 312] | ≥ 0.1 µM | < 0.01 µM
35 | C[C@@H](O)c1cc2cnc(Nc3ccc(N4CCNCC4)nn3)nc2c(NCC2CCOCC2)n1 [Compound 313] | ≥ 0.1 µM | < 0.01 µM
36 | C[C@@H](O)c1cc2cnc(Nc3ccc(CN4CCNCC4)cn3)nc2c(NC2CCS(=O)(=O)CC2)n1 [Compound 314] | ≥ 0.1 µM | < 0.01 µM
37 | C[C@@H](O)c1cc2cnc(Nc3ccc(N4CCNCC4)nn3)nc2c(NC(C)(C)C(=O)O)n1 [Compound 315] | ≥ 0.1 µM | ≥ 0.1 µM
38 | C[C@@H](O)c1cc2cnc(Nc3ccc(N4CCNCC4)nn3)nc2c(NC2(C(=O)O)CCCC2)n1 [Compound 316] | ≥ 0.1 µM | ≥ 0.1 µM
39 | C[C@@H](O)c1cc2cnc(Nc3ccc(C4CCNCC4)nn3)nc2c(NC2CCOCC2)n1 [Compound 317] | ≥ 0.1 µM | < 0.01 µM
40 | CC(C)Nc1nc([C@@H](C)O)cc2cnc(Nc3ccc(C4CCNCC4)nn3)nc12 [Compound 318] | ≥ 0.1 µM | < 0.01 µM
41 | CC(C)Nc1nc([C@@H](C)O)cc2cnc(Nc3ccc(N4CCN(C=O)CC4=O)cn3)nc12 [Compound 319] | ≥ 0.1 µM | < 0.01 µM
42 | CO[C@H](C)c1cc2cnc(Nc3ccc(CN4CCNCC4)cn3)nc2c(NCC2CCOC2)n1 (stereo partly shown) [Compound 320] | ≥ 0.1 µM | < 0.01 µM
43 | CO[C@H](C)c1cc2cnc(Nc3ccc(N4CCNCC4)nn3)nc2c(NCC2CCOC2)n1 (stereo partly shown) [Compound 321] | ≥ 0.1 µM | < 0.01 µM
44 | C[C@@H](O)c1cc2cnc(Nc3ccc(N4CCNCC4)nn3)nc2c(NC2CCS(=O)(=O)CC2)n1 [Compound 322] | ≥ 0.1 µM | 0.01 to 0.1 µM
45 | C[C@@H](O)c1cc2cnc(Nc3ccc(CN4CCNCC4)cn3)nc2c(NCC2CCOC2)n1 (stereo partly shown) [Compound 323] | ≥ 0.1 µM | < 0.01 µM
46 | C[C@@H](O)c1cc2cnc(Nc3ccc(CN4CCNCC4)cn3)nc2c(NC2CCCC2C(=O)O)n1 (stereo partly shown) [Compound 324] | ≥ 0.1 µM | ≥ 0.1 µM
47 | C[C@@H](O)c1cc2cnc(Nc3ccc(CN4CCNCC4)cn3)nc2c(NC2(C(=O)O)CCCC2)n1 [Compound 325] | ≥ 0.1 µM | 0.01 to 0.1 µM
48 | C[C@@H](O)c1nc(NC2CCOCC2)c2nc(Nc3ccc(CN4CCNCC4)cn3)ncc2c1Cl [Compound 326] | ≥ 0.1 µM | < 0.01 µM
49 | C[C@@H](O)c1cc2cnc(Nc3ccc(N4CCNCC4)nn3)nc2c(NC(C)(C)CC(=O)O)n1 [Compound 327] | ≥ 0.1 µM | 0.01 to 0.1 µM
50 | CC(=O)c1cc2cnc(Nc3ccc(N4CCNCC4)nn3)nc2c(NC(C)C)n1 [Compound 328] | ≥ 0.1 µM | < 0.01 µM
